Where only a bound is given, the exact number is not on record here.

A short description of data set [1]: Stability of compounds in simulated intestinal fluid (SIF). To be noted: simulated intestinal fluid (USP, 3 mg/mL pancreatin), 1-20 μM, incubation time 6 hr, relative to t=0. It counts as in vitro ADME. Here is the method: (§1) Test compounds were incubated at 1-20 μM in simulated gastric fluid (SGF; standard USP solution with 3 mg/mL pepsin) or simulated intestinal fluid (SIF; standard USP solution with 3 mg/mL pancreatin) for 3 hr or 6 hr. HPLC-UV or HPLC-MS were used to determine test compound levels using peak area %. Results (Table 14) were reported as the percentage of test compound remaining after incubation in a given condition relative to test compound present at t=0 in the same condition.

A short description of data set [2]: Stability of compounds in simulated gastric fluid (SGF). To be noted: simulated gastric fluid (USP, 3 mg/mL pepsin), 1-20 μM, incubation time 6 hr, relative to t=0. It counts as in vitro ADME. As to the method:
as §1

For another data set, the target named is T1, rat NaP2b (SLC34A2) (Rattus norvegicus, UniProt Q9JJ09).
T1 construct: host or cells: HEK293
T1 sequence (Q9JJ09 1-695): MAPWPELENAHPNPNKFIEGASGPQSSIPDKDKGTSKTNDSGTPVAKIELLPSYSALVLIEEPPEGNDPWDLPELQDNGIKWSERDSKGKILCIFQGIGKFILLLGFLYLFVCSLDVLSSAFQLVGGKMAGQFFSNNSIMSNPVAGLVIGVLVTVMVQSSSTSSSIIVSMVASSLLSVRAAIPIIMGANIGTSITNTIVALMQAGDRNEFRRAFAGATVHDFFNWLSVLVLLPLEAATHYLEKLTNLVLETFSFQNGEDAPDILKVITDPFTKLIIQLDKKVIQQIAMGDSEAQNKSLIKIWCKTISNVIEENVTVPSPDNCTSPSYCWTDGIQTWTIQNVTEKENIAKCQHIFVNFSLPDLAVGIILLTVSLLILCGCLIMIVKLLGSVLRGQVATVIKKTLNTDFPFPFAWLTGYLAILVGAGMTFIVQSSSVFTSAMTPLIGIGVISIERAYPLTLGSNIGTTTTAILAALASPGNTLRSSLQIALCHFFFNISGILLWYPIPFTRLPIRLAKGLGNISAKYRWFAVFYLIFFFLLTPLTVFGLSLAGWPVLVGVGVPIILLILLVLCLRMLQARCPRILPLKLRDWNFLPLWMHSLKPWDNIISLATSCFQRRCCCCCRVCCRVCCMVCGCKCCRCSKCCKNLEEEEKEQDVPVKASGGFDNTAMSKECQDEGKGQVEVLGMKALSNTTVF
Nature of the data set: Inhibition of NaP2b-mediated Pi (33P) uptake in transfected HEK293 cells, rat NaP2b. The class given is cell-based. To be noted: HEK293 cells transfected with rat NaP2b, 100 uM phosphate, 0.1 nM to 30 uM, read-out: pIC50 range for rat Nap2b (converted). The gist of the method: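 HEK293 cells transiently transfected with rat NaP2b; 33P-phosphate uptake measured in sodium or choline buffer (100 uM KH2PO4, PiT-silencing agent, pH 7.4) with compound at twelve concentrations, 0.1 nM–30 uM, in duplicate. Lysed cells counted by scintillation; pIC50 derived from concentration-response.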

A short description of data set [3]: Fecal recovery of orally administered compounds. The class given is in vivo. To be noted: rat; oral gavage; feces collected until 48 hr after dosing. The source says:
In this respect, it is understood that a recovered compound can include the sum of the parent compound and its metabolites derived from the parent compound, e.g., by means of hydrolysis, conjugation, reduction, oxidation, N-alkylation, glucuronidation, acetylation, methylation, sulfation, phosphorylation, or any other modification that adds atoms to or removes atoms from the parent compound, wherein the metabolites are generated via the action of any enzyme or exposure to any physiological environment including, pH, temperature, pressure, or interactions with foodstuffs as they exist in the digestive milieu. Measurement of fecal recovery of compound and metabolites can be carried out using standard methodology. For example, compound can be administered orally at a suitable dose (e.g., 10 mg/kg) and feces are then collected at predetermined times after dosing (e.g., 24 hours, 48 hours, 72 hours). Parent compound and metabolites can be extracted with organic solvent and analyzed quantitatively using mass spectrometry. A mass balance analysis of the parent compound and metabolites (including, parent=M, metabolite 1 [M+16], and metabolite 2 [M+32]) can be used to determine the percent recovery in the feces.
Quantitative determination of test compound level in feces after oral gavage was performed using the same set of animals used to determine test compound concentration in plasma (Example 352). The animals were kept in metabolic cages and feces were collected from the time of dosing until 48 hr after dosing. Upon collection, feces were dried by lyophilization and ground to a visually homogenous powder. Duplicate samples of ground feces from each individual animal were weighed out and extracted using organic solvent. Extracted samples were then diluted into mobile phase and test compound levels were quantitatively determined by LC-MS/MS analysis as described in Example 352 except that the standard curve was prepared in a feces matrix. Extraction conditions were not optimized for individual compounds, and thus may represent a minimal level of recovery.

A further data set has as its system Sprague-Dawley rats. In words: In vivo co-dosing in chow (urine P out / P consumed). To be noted: feed or water; rat; drug in chow, nominal 100 mg/kg/day (mean dose per line in table); urine 24-96 h; read-out: Mean % inhibition Urine Pout/P consumed. The text has this:
Male, 7-week-old Sprague-Dawley rats (Charles-River laboratories international, Hollister, Calif.) were allowed to acclimate for a minimum of 3 days. The experiment was initiated by switching animals to a synthetic diet (0.6% phosphorus and 0.6% calcium, Harlan Teklad TD.84122) for four days. After this time, the animals were placed into metabolic cages for daily monitoring of food and water consumption, as well as urine and fecal collections. Test compounds were incorporated into the powdered diet listed above containing 3% chocolate flavoring (w/w, BioServ #7345) at 1.3 mg test compound per gram of diet to achieve an average daily nominal dose of 100 mg/kg/day. The actual dose received by each animal was later determined by measuring prepared diet consumption and body weight. Urine samples were collected in three daily periods from 24-48, 48-72, and 72-96 hours of drug dosing. […] Phosphorus levels in the urine were determined by anion exchange chromatography using a Dionex ICS-3000 ion chromatography system. […] Elution of urine phosphate ions was monitored via conductivity detector and reported as ppm relative to a standard ion solution containing phosphate. Daily urinary P output relative to the P consumed in the prepared diet for each animal was calculated. […] The differences between the means of control and treated groups were evaluated by t tests. […]

Another data set deals with T2, human NaP2b (SLC34A2) (Homo sapiens, UniProt O95436).
T2 construct: host or cells: HEK293
T2 sequence (O95436 1-690): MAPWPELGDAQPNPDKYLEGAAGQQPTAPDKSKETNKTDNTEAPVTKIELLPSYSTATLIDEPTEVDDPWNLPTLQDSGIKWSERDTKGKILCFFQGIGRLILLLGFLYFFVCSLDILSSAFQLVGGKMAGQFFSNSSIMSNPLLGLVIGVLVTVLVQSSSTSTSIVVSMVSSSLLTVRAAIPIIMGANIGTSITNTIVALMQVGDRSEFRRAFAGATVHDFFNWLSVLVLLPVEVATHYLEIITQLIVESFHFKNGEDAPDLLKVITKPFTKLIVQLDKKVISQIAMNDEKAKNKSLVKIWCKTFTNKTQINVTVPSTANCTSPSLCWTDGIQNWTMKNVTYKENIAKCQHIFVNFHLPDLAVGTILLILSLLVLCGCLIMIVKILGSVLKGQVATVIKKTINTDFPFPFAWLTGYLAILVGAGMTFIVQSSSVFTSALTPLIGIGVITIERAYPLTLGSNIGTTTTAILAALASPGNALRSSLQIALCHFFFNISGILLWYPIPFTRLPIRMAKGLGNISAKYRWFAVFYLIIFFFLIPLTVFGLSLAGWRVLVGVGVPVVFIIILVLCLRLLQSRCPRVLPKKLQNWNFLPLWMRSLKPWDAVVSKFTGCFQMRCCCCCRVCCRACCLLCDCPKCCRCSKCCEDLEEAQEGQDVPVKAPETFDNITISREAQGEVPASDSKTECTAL
Nature of the data set: Inhibition of NaP2b-mediated Pi (33P) uptake in transfected HEK293 cells, human NaP2b. It counts as cell-based. To be noted: HEK293 cells transfected with human NaP2b, 100 uM phosphate, 0.1 nM to 30 uM, read-out: pIC50 range for human NaP2b (converted). As to the method: HEK293 cells were obtained from the American Type Culture collection and propagated per their instructions. Expression clones for rat and human NaP2b (SLC34A2) were obtained from Open Biosystems (Catalog numbers MRN1768-9510282, and MHS1010-99823026, respectively). The sequence of the human protein was mutated to insert a threonine after residue 37, and to introduce a N39D mutation.
The rate of phosphate (Pi) uptake into HEK293 cells was measured using a modification of the method described by Mohrmann et al. (Mohrmann, I., Mohrmann, M., Biber, J., and Murer, H. (1986) Am. J. Phys. 250(3 Pt 1):G323-30.) Transfected HEK293 cells were treated with a pharmacological agent to minimize endogenous PiT-mediated phosphate transport activity, such that the only remaining sodium-dependent phosphate transport activity is that which was bestowed by introduction of the NaP2b genes.
Cells were seeded into 96-well plates at 25,000 cells/well and cultured overnight. Lipofectamine 2000 (Invitrogen) was used to introduce the NaP2b cDNA, and the cells were allowed to approach confluence during a second overnight incubation. […] Cells were then overlayed with either choline uptake buffer or sodium uptake buffer (14 mM Tris, 137 mM sodium chloride, 5.4 mM KCl, 2.8 mM CaCl2, 1.2 mM MgSO4, 100 uM KH2PO4, PiT-silencing agent, 1 mg/mL Bovine Serum Albumin, pH 7.4) containing 6-9 uCi/mL ^33P orthophosphoric acid (Perkin Elmer) and test compound. Each compound was tested at twelve concentrations ranging from 0.1 nM to 30 uM. Assays were run in duplicate.
After incubation for 3-30 minutes at room temperature, assay mixtures were removed, and the cells were washed twice with ice cold stop solution (137 mM sodium chloride, 14 mM Tris, pH 7.4). Cells were lysed by addition of 20 μL 0.1% Tween 80 followed by 100 μL scintillation fluid, and counted using a TopCount (Perkin Elmer).
pIC50 (the negative log of the […]) values of the test compounds were calculated using GraphPad Prism.

For data set [4] the following is noted: human absorption; cited from earlier work.
Data set [5] can be described thus: Determination of compound Cmax and AUC in plasma after oral gavage. It counts as in vivo, rat. To be noted: Sprague-Dawley rats, actual oral dose 3-15 mg/kg, 0.5-4 h. As to the method:
Sprague-Dawley rats were orally gavaged with test article at a nominal dose of 2.5 or 10 mg/kg and blood was collected at 0.5, 1, 2 and 4 h. Blood samples were processed to plasma using K2EDTA as an anticoaglulant. Plasma samples were treated with acetonitrile containing an internal standard, precipitated proteins removed by centrifugation. Supernatants were analyzed by LC-MS/MS and compound concentrations were determined by interpolation from a standard curve prepared in plasma. All compounds were orally dosed at the dosage shown, and pharmacokinetic parameters determined.

With `CN(CCN1CCOCC1)C(=O)c1cccc(C(=O)Nc2ccc(OC3CCC3)cc2-c2cc(C(=O)NCc3cccc(C(F)(F)F)c3)ccn2)c1` [Example 26, N1-(4-Cyclobutoxy-2-(4-((3-(trifluoromethyl)benzyl)carbamoyl)pyridin-2-yl)phenyl)-N3-methyl-N3-(2-morpholinoethyl)isophthalamide], the “% remaining, SIF” value in data set [1] is given as 60-80%. Besides, in data set [2], the “% remaining, SGF” value is recorded as >80%. The IC50 on rat NaP2b (SLC34A2) is 1000 to 7940 nM. In addition, the “% recovered in feces” value in data set [3] is <20%.

Turning to `CN(CCN1CCOCC1)C(=O)c1cccc(C(=O)Nc2ccc(N3CCCCC3)cc2-c2cc(C(=O)N[C@H]3CCCc4ccccc43)ccn2)c1` [Example 37, (S)—N1-Methyl-N1-(2-morpholinoethyl)-N3-(4-(piperidin-1-yl)-2-(4-((1,2,3,4-tetrahydronaphthalen-1-yl)carbamoyl)pyridin-2-yl)phenyl)isophthalamide], the inhibition in vivo at 100 mg/kg/day in the data set with Sprague-Dawley rats is ≤ 10%. Further, the IC50 on rat NaP2b (SLC34A2) and on human NaP2b (SLC34A2) was < 1000 nM throughout.

Turning to `Cc1cc(=O)n(-c2ccccc2)n1C` [phenazone], the “% FA” value in data set [4] was 97%.

In the case of “(S)-2-(5-(diethylamino)-2-(3-(27-oxo-2,5,8,11,14,17,20,23,30,33,36,39-dodecaoxa-42-thia-26-azatritetracontan-43-yl)benzamido)phenyl)-N-(1,2,3,4-tetrahydronaphthalen-1-yl)isonicotinamide [Example 157.1]”, in data set [5], the AUC was <30 ng·h/mL and the Cmax is on record as <10 ng/mL.

The record behind these values is patent US9301951B2 (Ardelyx, Inc., priority 2010, dated 2016).
